Assay results as given in US7291349B2, “Anti-dermatophytic preparation and use thereof” (priority 2003, dated 2007).

Tested on: Candida albicans MTCC1637
Test: Broth assay (two fold dilution method) of garlic extract in combination with essential oils
Assay type: cell-based
Details: Table 3
Description: Following tables presents the results of evaluation of antifungal activities of water or solvent extracts of garlic in combinations with the essential oils. […] The combinations of essential oils and garlic extracts were made according to their MICs ([…]). […] But only selected oils viz. Mentha spicata van. […] The activity increased to several folds when these combinations were added to constituent of essential oil like menthyl acetate. […] The broth assay was carried out following the NCCLS documents published by National Committee for Clinical and Laboratory Standards (USA) and disc diffusion assay according to Bauer et al (Bauer et al, […], American Journal of Clinical Pathology, 45:493-496).

Fold enhancement on the basis of Reduction in the MIC of oil in combination (garlic extract 1/1600): 2
Reduction in the MIC of oil (garlic extract 1/1600 in combination): 1/1600
Fold enhancement on the basis of Reduction in the MIC of oil in combination (garlic extract 1/3200): 2
Reduction in the MIC of oil (garlic extract 1/3200 in combination): 1/1600
Fold enhancement on the basis of Reduction in the MIC of oil in combination (garlic extract 1/6400): 2
Reduction in the MIC of oil (garlic extract 1/6400 in combination): 1/1600
MIC of essential oil/extract (alone, dilution): 1/800
SMILES: CC(=O)OC1CC(C)CCC1C(C)C (stereo not shown) [Menthyl acetate]
FIC value (garlic extract 1/1600): 1.0
Type of Interaction (garlic extract 1/1600): Indifference
FIC value (garlic extract 1/3200): 0.75
Type of Interaction (garlic extract 1/3200): Additive
FIC value (garlic extract 1/6400): 0.625
Type of Interaction (garlic extract 1/6400): Additive
